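Cells were grown in 96-well plates and exposed to each compound for 48 hours at five concentrations; endpoints were interpolated linearly between bracketing concentrations, or set to the highest concentration if not reached. GI50 is the concentration that inhibits growth by half. TGI is the concentration that stops growth completely.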
What was measured:
Assay in all cases: NCI-60 cell line screen, 48 h
[1] = tested on: M14 melanoma
[2] = tested on: SK-OV-3 ovarian
[3] = tested on: NCI/ADR-RES ovarian
[4] = tested on: SK-MEL-5 melanoma
[5] = tested on: UACC-62 melanoma
[6] = tested on: 786-0 renal
[7] = tested on: HCT-15 colon
[8] = tested on: HCC-2998 colon
[9] = tested on: HCT-116 colon
[10] = tested on: OVCAR-5 ovarian
[11] = tested on: DU-145 prostate
[12] = tested on: SNB-19 CNS
[13] = tested on: MDA-MB-231 breast
[14] = tested on: CCRF-CEM leukemia
[15] = tested on: SK-MEL-2 melanoma
[16] = tested on: A549 NSCLC
[17] = tested on: T-47D breast
[18] = tested on: ACHN renal
[19] = tested on: UO-31 renal
[20] = tested on: K-562 leukemia
[21] = tested on: TK-10 renal
[22] = tested on: UACC-257 melanoma
[23] = tested on: OVCAR-4 ovarian
[24] = tested on: NCI-H23 lung
[25] = tested on: OVCAR-3 ovarian
[26] = tested on: CAKI-1 renal
[27] = tested on: HT29 colon
[28] = tested on: LOX IMVI melanoma
[29] = tested on: SF-268 CNS
[30] = tested on: A498 renal
[31] = tested on: MDA-MB-435
[32] = tested on: SR leukemia
[33] = tested on: RXF 393 renal
[34] = tested on: PC-3 prostate
[35] = tested on: BT-549 breast
[36] = tested on: SF-539 CNS
[37] = tested on: MALME-3M melanoma
[38] = tested on: NCI-H226 lung
[39] = tested on: KM12 colon
[40] = tested on: IGROV1 ovarian
[41] = tested on: SF-295 CNS
[42] = tested on: U251 CNS
[43] = tested on: COLO 205 colon
[44] = tested on: EKVX NSCLC
[45] = tested on: HOP-62 NSCLC
[46] = tested on: HOP-92 NSCLC
[47] = tested on: SW-620 colon
[48] = tested on: MDA-MB-468 breast
[49] = tested on: SNB-75 CNS
[50] = tested on: HL-60(TB) leukemia
[51] = tested on: RPMI-8226 leukemia
[52] = tested on: MCF7 breast
[53] = tested on: OVCAR-8 ovarian
[54] = tested on: NCI-H460 lung
[55] = tested on: SK-MEL-28 melanoma
[56] = tested on: HS 578T breast
[57] = tested on: NCI-H522 lung
[58] = tested on: SN12C renal
[59] = tested on: MOLT-4 leukemia

Work on `COc1ccc(-c2nc(S(=O)(=O)c3ccc(C)cc3)c(S(C)(=O)=O)o2)cc1` yielded a GI50 [1] of 1.95 µM, a TGI [1] of 4.59 µM and a GI50 [2] of 18.5 µM. The TGI [2] was 35.1 µM, the GI50 [3] was 12 µM and the TGI [3] was 37.5 µM. For the same compound, the GI50 [4] was 12.8 µM, the TGI [4] was 26.2 µM and the GI50 [5] was 7.59 µM. For the same compound, the TGI [5] was 20.4 µM, the GI50 [6] was 1.64 µM and the TGI [6] was 3.47 µM. It also gave a GI50 [7] of 1.96 µM, a TGI [7] of 4.2 µM and a GI50 [8] of 7.61 µM. The TGI [8] was 21.1 µM, the GI50 [9] was 1.78 µM and the TGI [9] was 3.34 µM. It also gave a GI50 [10] of 10.9 µM, a TGI [10] of 23.1 µM and a GI50 [11] of 2.57 µM. For the same compound, the TGI [11] was 6.82 µM, the GI50 [12] was 15.1 µM and the TGI [12] was 28.3 µM. The GI50 [13] was 1.73 µM, the TGI [13] was 3.35 µM and the GI50 [14] was 2.38 µM. For the same compound, the TGI [14] was 6.43 µM, the GI50 [15] was 14.3 µM and the TGI [15] was 27.7 µM. It also gave a GI50 [16] of 18.9 µM, a TGI [16] of 39.4 µM and a GI50 [17] of 2.03 µM. It also gave a TGI [17] of 4.55 µM, a GI50 [18] of 1.72 µM and a TGI [18] of 3.11 µM. The GI50 [19] was 3.43 µM, the TGI [19] was 15.3 µM and the GI50 [20] was 2.91 µM. The TGI [20] was > 100 µM, the GI50 [21] was 7.76 µM and the TGI [21] was 21 µM. The GI50 [22] was 9.8 µM, the TGI [22] was 23.1 µM and the GI50 [23] was 3.1 µM. It also gave a TGI [23] of 11.1 µM, a GI50 [24] of 5.57 µM and a TGI [24] of 19.1 µM. It also gave a GI50 [25] of 1.83 µM, a TGI [25] of 3.37 µM and a GI50 [26] of 2.82 µM. The TGI [26] was 9.83 µM, the GI50 [27] was 2.09 µM and the TGI [27] was 4.37 µM. It also gave a GI50 [28] of 1.56 µM, a TGI [28] of 2.96 µM and a GI50 [29] of 12.5 µM. It also gave a TGI [29] of 30 µM, a GI50 [30] of 14.3 µM and a TGI [30] of 27.4 µM. It also gave a GI50 [31] of 5.3 µM, a TGI [31] of 19.6 µM and a GI50 [32] of 2.83 µM. For the same compound, the TGI [32] was > 100 µM, the GI50 [33] was 1.47 µM and the TGI [33] was 2.94 µM. It also gave a GI50 [34] of 11.1 µM, a TGI [34] of 25.6 µM and a GI50 [35] of 3.39 µM. The TGI [35] was 10 µM, the GI50 [36] was 1.83 µM and the TGI [36] was 3.8 µM. The GI50 [37] was 1.45 µM, the TGI [37] was 2.79 µM and the GI50 [38] was 16.9 µM. It also gave a TGI [38] of 38.5 µM, a GI50 [39] of 16.2 µM and a TGI [39] of 32.2 µM. The GI50 [40] was 7.16 µM, the TGI [40] was 20.4 µM and the GI50 [41] was 14.6 µM. It also gave a TGI [41] of 27.8 µM, a GI50 [42] of 17 µM and a TGI [42] of 31.7 µM. The GI50 [43] was 2.21 µM, the TGI [43] was 4.95 µM and the GI50 [44] was 11 µM. The TGI [44] was 25.4 µM, the GI50 [45] was 20.2 µM and the TGI [45] was 40 µM. For the same compound, the GI50 [46] was 3.03 µM, the TGI [46] was 11.6 µM and the GI50 [47] was 1.66 µM. The TGI [47] was 3.32 µM, the GI50 [48] was 1.6 µM and the TGI [48] was 3.23 µM. It also gave a GI50 [49] of 11.3 µM, a TGI [49] of 23.7 µM and a GI50 [50] of 1.8 µM. It also gave a TGI [50] of 6.14 µM, a GI50 [51] of 3.05 µM and a TGI [51] of 17.3 µM. The GI50 [52] was 2.14 µM, the TGI [52] was 6.1 µM and the GI50 [53] was 10.5 µM. The TGI [53] was 27.1 µM, the GI50 [54] was 10.1 µM and the TGI [54] was 24.1 µM. The GI50 [55] was 3.2 µM, the TGI [55] was 11 µM and the GI50 [56] was 5.35 µM. It also gave a TGI [56] of 34 µM, a GI50 [57] of 1.66 µM and a TGI [57] of 3.28 µM. For the same compound, the GI50 [58] was 4.94 µM and the TGI [58] was 17.6 µM.

Compound `Nc1cc(-c2c[nH]c3ccc(Cl)cc23)nc2cc(-c3c[nH]c4ccccc34)nn12` has a GI50 [1] of 1.85 µM, a TGI [1] of 4.17 µM and a GI50 [2] of 6.25 µM. It also gave a TGI [2] of 20 µM, a GI50 [3] of 3.45 µM and a TGI [3] of 14.7 µM. It also gave a GI50 [4] of 2.05 µM, a TGI [4] of 4.42 µM and a GI50 [5] of 1.72 µM. The TGI [5] was 3.55 µM, the GI50 [6] was 1.67 µM and the TGI [6] was 3.67 µM. It also gave a GI50 [7] of 1.61 µM, a TGI [7] of 3.24 µM and a GI50 [8] of 1.86 µM. The TGI [8] was 3.6 µM, the GI50 [9] was 1.67 µM and the TGI [9] was 3.12 µM. It also gave a GI50 [10] of 1.9 µM, a TGI [10] of 4.32 µM and a GI50 [11] of 3.56 µM. For the same compound, the TGI [11] was 12.9 µM, the GI50 [12] was 2.95 µM and the TGI [12] was 10.7 µM. The GI50 [13] was 1.96 µM, the TGI [13] was 3.6 µM and the GI50 [14] was 2.99 µM. It also gave a TGI [14] of 9.39 µM, a GI50 [15] of 2.28 µM and a TGI [15] of 6.05 µM. For the same compound, the GI50 [16] was 2.76 µM, the TGI [16] was 12.1 µM and the GI50 [17] was 2.61 µM. It also gave a GI50 [59] of 1.86 µM, a TGI [59] of 5.04 µM and a GI50 [18] of 2.76 µM. For the same compound, the TGI [18] was 7.77 µM, the GI50 [19] was 2.59 µM and the TGI [19] was 10.4 µM. For the same compound, the GI50 [20] was 2.15 µM, the TGI [20] was 5.7 µM and the GI50 [21] was 2.9 µM. The TGI [21] was 13.3 µM, the GI50 [22] was 2.99 µM and the TGI [22] was 12.2 µM. The GI50 [23] was 3.65 µM, the TGI [23] was 17.1 µM and the GI50 [24] was 2.23 µM. For the same compound, the TGI [24] was 5.5 µM, the GI50 [25] was 2.9 µM and the TGI [25] was 10.5 µM. For the same compound, the GI50 [26] was 1.99 µM, the TGI [26] was 5.28 µM and the GI50 [27] was 2.04 µM. It also gave a TGI [27] of 4.62 µM, a GI50 [28] of 1.75 µM and a TGI [28] of 3.22 µM. It also gave a GI50 [29] of 2.75 µM, a TGI [29] of 12.7 µM and a GI50 [30] of 2.09 µM. It also gave a TGI [30] of 7.69 µM, a GI50 [31] of 2.42 µM and a TGI [31] of 7.27 µM. The GI50 [33] was 2.23 µM, the TGI [33] was 6.61 µM and the GI50 [34] was 2.59 µM. The TGI [34] was 7.89 µM, the GI50 [35] was 4.98 µM and the TGI [35] was 17.9 µM. It also gave a GI50 [36] of 1.81 µM, a TGI [36] of 3.47 µM and a GI50 [37] of 1.78 µM. It also gave a TGI [37] of 3.23 µM, a GI50 [38] of 3.52 µM and a TGI [38] of 28 µM. For the same compound, the GI50 [39] was 2.02 µM, the TGI [39] was 4.27 µM and the GI50 [40] was 3.34 µM. It also gave a TGI [40] of 12.7 µM, a GI50 [41] of 1.81 µM and a TGI [41] of 3.61 µM. It also gave a GI50 [42] of 1.8 µM, a TGI [42] of 4.22 µM and a GI50 [43] of 1.75 µM. The TGI [43] was 3.6 µM, the GI50 [44] was 2.44 µM and the TGI [44] was 8.51 µM. The GI50 [45] was 3.1 µM, the TGI [45] was 10.7 µM and the GI50 [46] was 2.1 µM. It also gave a TGI [46] of 5.65 µM, a GI50 [48] of 1.45 µM and a TGI [48] of 3.2 µM. For the same compound, the GI50 [49] was 1.71 µM, the TGI [49] was 9.69 µM and the GI50 [50] was 2.09 µM. For the same compound, the TGI [50] was 7.43 µM, the GI50 [51] was 2.29 µM and the TGI [51] was 6.98 µM. It also gave a GI50 [52] of 1.83 µM, a TGI [52] of 3.96 µM and a GI50 [53] of 3.19 µM. The TGI [53] was 17.3 µM, the GI50 [55] was 1.87 µM and the TGI [55] was 4.23 µM. The GI50 [56] was 3.25 µM, the TGI [56] was 16.4 µM and the GI50 [58] was 3.63 µM. The TGI [58] was 14.3 µM.
